Assay: xn = mol fraction of the nth substance listed
Conditions: Liquid, Bellows volumetry

C=CC [propene] + Cc1ccccc1
Conditions	mass density [kg/m3]
422.8 K, 6300 kPa, x1 = 0.7612	383
422.8 K, 6800 kPa, x1 = 0.7612	392.4
422.8 K, 7500 kPa, x1 = 0.7612	405.5
422.8 K, 8900 kPa, x1 = 0.7612	424.5
422.8 K, 10600 kPa, x1 = 0.7612	441.8
422.8 K, 15400 kPa, x1 = 0.7612	476.7
422.8 K, 17400 kPa, x1 = 0.7612	484.1
422.8 K, 24400 kPa, x1 = 0.7612	508.8
422.8 K, 31000 kPa, x1 = 0.7612	527.4
422.8 K, 37800 kPa, x1 = 0.7612	543.1
422.8 K, 44900 kPa, x1 = 0.7612	556.7
422.8 K, 51600 kPa, x1 = 0.7612	566.8
422.8 K, 58200 kPa, x1 = 0.7612	576.2
422.8 K, 63200 kPa, x1 = 0.7612	583.4
422.8 K, 67200 kPa, x1 = 0.7612	588.5
424 K, 4500 kPa, x1 = 0.53	514
424 K, 4800 kPa, x1 = 0.53	516.1
424 K, 5300 kPa, x1 = 0.53	519
424 K, 5900 kPa, x1 = 0.53	522.7
424 K, 7100 kPa, x1 = 0.53	529
424 K, 8700 kPa, x1 = 0.53	535.9
424 K, 10400 kPa, x1 = 0.53	543
424 K, 17000 kPa, x1 = 0.53	563.7
424 K, 24000 kPa, x1 = 0.53	581.4
424 K, 30500 kPa, x1 = 0.53	594.5
425.2 K, 1300 kPa, x1 = 0.1159	668.8
425.2 K, 1600 kPa, x1 = 0.1159	669.7
425.2 K, 2200 kPa, x1 = 0.1159	671
425.2 K, 3200 kPa, x1 = 0.1159	673.2
425.2 K, 5400 kPa, x1 = 0.1159	678.2
425.2 K, 7000 kPa, x1 = 0.1159	681.3
425.2 K, 10300 kPa, x1 = 0.1159	688.2
425.2 K, 17100 kPa, x1 = 0.1159	700.5
425.2 K, 24000 kPa, x1 = 0.1159	712.3
425.2 K, 30700 kPa, x1 = 0.1159	721.9
425.2 K, 37600 kPa, x1 = 0.1159	730.7
425.2 K, 44700 kPa, x1 = 0.1159	738.6
425.2 K, 51400 kPa, x1 = 0.1159	745.7
425.2 K, 58400 kPa, x1 = 0.1159	752.3
425.2 K, 63100 kPa, x1 = 0.1159	756.7
425.2 K, 67000 kPa, x1 = 0.1159	760.1
474.3 K, 2200 kPa, x1 = 0.1159	604.5
474.3 K, 2900 kPa, x1 = 0.1159	607.4
474.3 K, 3700 kPa, x1 = 0.1159	610.3
474.3 K, 5300 kPa, x1 = 0.1159	616.2
474.3 K, 7200 kPa, x1 = 0.1159	622.2
474.3 K, 10500 kPa, x1 = 0.1159	632.3
474.3 K, 13900 kPa, x1 = 0.1159	641.4
474.3 K, 17400 kPa, x1 = 0.1159	650.5
474.3 K, 20400 kPa, x1 = 0.1159	657.2
474.3 K, 23700 kPa, x1 = 0.1159	664.4
474.3 K, 31100 kPa, x1 = 0.1159	678.2
474.3 K, 37400 kPa, x1 = 0.1159	688.7
474.3 K, 38000 kPa, x1 = 0.1159	689.6
474.3 K, 44800 kPa, x1 = 0.1159	700.1
474.3 K, 51300 kPa, x1 = 0.1159	708.8
474.4 K, 6700 kPa, x1 = 0.53	412.3
474.4 K, 7200 kPa, x1 = 0.53	423.9
474.4 K, 8100 kPa, x1 = 0.53	437.9
474.4 K, 9200 kPa, x1 = 0.53	450.2
474.4 K, 10700 kPa, x1 = 0.53	464.3
474.4 K, 13800 kPa, x1 = 0.53	487.2
474.4 K, 18000 kPa, x1 = 0.53	509
474.4 K, 23800 kPa, x1 = 0.53	531.7
474.4 K, 31300 kPa, x1 = 0.53	551.8
474.4 K, 37900 kPa, x1 = 0.53	566.1
474.4 K, 44400 kPa, x1 = 0.53	579
474.4 K, 51500 kPa, x1 = 0.53	591.3
474.4 K, 58400 kPa, x1 = 0.53	602.1
474.4 K, 63100 kPa, x1 = 0.53	608.9
474.4 K, 67200 kPa, x1 = 0.53	614.2
474.8 K, 7900 kPa, x1 = 0.7612	213.2
474.8 K, 8500 kPa, x1 = 0.7612	232.7
474.8 K, 9100 kPa, x1 = 0.7612	257.3
474.8 K, 9800 kPa, x1 = 0.7612	279.8
474.8 K, 10600 kPa, x1 = 0.7612	304.4
474.8 K, 11700 kPa, x1 = 0.7612	333.8
474.8 K, 12100 kPa, x1 = 0.7612	337.7
474.8 K, 14600 kPa, x1 = 0.7612	374.6
474.8 K, 17400 kPa, x1 = 0.7612	402.7
474.8 K, 24200 kPa, x1 = 0.7612	442.3
474.8 K, 31800 kPa, x1 = 0.7612	475
474.8 K, 37900 kPa, x1 = 0.7612	493.8
474.8 K, 44600 kPa, x1 = 0.7612	511.3
474.8 K, 51500 kPa, x1 = 0.7612	527.1
474.8 K, 58300 kPa, x1 = 0.7612	540
474.8 K, 63100 kPa, x1 = 0.7612	547.8
474.8 K, 67300 kPa, x1 = 0.7612	553.9
505.4 K, 7200 kPa, x1 = 0.53	291.1
505.4 K, 7700 kPa, x1 = 0.53	316.5
505.4 K, 8000 kPa, x1 = 0.53	328
505.4 K, 8700 kPa, x1 = 0.53	355.4
505.4 K, 9500 kPa, x1 = 0.53	376.8
505.4 K, 10600 kPa, x1 = 0.53	396.8
505.4 K, 13800 kPa, x1 = 0.53	435.7
505.4 K, 17400 kPa, x1 = 0.53	462.3
505.4 K, 24200 kPa, x1 = 0.53	495.4
505.4 K, 31500 kPa, x1 = 0.53	523.8
505.4 K, 37900 kPa, x1 = 0.53	540.2
505.4 K, 44600 kPa, x1 = 0.53	554.8
505.4 K, 51400 kPa, x1 = 0.53	568
505.4 K, 58400 kPa, x1 = 0.53	579.6
505.4 K, 62900 kPa, x1 = 0.53	587.4
505.4 K, 66800 kPa, x1 = 0.53	592.6
554.4 K, 4700 kPa, x1 = 0.1159	442.2
554.4 K, 5300 kPa, x1 = 0.1159	460
554.4 K, 6000 kPa, x1 = 0.1159	475.7
554.4 K, 6600 kPa, x1 = 0.1159	486
554.4 K, 7200 kPa, x1 = 0.1159	493.7
554.4 K, 9400 kPa, x1 = 0.1159	515.7
554.4 K, 10800 kPa, x1 = 0.1159	526.4
554.4 K, 17800 kPa, x1 = 0.1159	567.8
554.4 K, 24100 kPa, x1 = 0.1159	591.2
554.4 K, 30900 kPa, x1 = 0.1159	610.7
554.4 K, 37900 kPa, x1 = 0.1159	626.5
554.4 K, 44500 kPa, x1 = 0.1159	640.2
554.4 K, 51800 kPa, x1 = 0.1159	653
554.4 K, 58200 kPa, x1 = 0.1159	663.6
554.4 K, 63300 kPa, x1 = 0.1159	671.5
554.4 K, 67100 kPa, x1 = 0.1159	676.8

Reference: the NIST ThermoML archive (doi:10.1016/j.fluid.2017.06.022)
